Laboratory results as given in ChEMBL document CHEMBL5291721, “A preclinical secondary pharmacology resource illuminates target-adverse drug reaction associations of marketed drugs” (Nat Commun, 2023).

What was measured:
D(1A) dopamine receptor = D(1A) dopamine receptor (Homo sapiens, UniProt P21728)
Estrogen receptor = target: T1, Estrogen receptor (Homo sapiens, UniProt P03372)
T1 sequence (P03372 whole entry): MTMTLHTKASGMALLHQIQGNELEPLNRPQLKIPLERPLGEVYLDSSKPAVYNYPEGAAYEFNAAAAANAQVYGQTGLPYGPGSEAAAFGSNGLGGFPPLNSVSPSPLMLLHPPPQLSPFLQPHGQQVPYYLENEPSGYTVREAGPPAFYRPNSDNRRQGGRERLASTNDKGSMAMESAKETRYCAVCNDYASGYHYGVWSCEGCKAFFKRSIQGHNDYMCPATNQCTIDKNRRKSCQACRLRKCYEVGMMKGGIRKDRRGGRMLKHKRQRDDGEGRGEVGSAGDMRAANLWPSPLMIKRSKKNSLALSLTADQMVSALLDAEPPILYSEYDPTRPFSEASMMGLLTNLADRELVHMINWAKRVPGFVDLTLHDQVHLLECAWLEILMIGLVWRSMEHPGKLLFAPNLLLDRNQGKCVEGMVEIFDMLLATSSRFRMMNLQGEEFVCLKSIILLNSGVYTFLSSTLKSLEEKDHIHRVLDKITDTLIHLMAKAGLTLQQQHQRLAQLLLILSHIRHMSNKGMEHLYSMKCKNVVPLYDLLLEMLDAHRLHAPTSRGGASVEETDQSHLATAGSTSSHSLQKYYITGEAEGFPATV

[1] = target: T2, Alpha-2A adrenergic receptor (Homo sapiens, UniProt P08913)
T2 sequence (P08913 whole entry): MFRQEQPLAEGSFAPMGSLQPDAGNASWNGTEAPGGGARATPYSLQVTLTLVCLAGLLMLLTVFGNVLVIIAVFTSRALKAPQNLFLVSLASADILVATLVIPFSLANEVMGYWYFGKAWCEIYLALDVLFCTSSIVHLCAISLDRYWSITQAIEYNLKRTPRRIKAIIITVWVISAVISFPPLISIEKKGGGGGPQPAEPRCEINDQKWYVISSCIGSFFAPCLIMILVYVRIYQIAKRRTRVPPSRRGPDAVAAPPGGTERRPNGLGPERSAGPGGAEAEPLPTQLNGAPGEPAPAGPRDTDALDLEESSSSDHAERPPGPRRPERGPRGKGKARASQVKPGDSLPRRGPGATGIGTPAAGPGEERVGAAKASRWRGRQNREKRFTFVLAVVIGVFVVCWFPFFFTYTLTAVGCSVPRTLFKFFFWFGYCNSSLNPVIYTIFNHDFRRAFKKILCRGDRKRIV

[2] = target: T3, Amine oxidase [flavin-containing] A (Homo sapiens, UniProt P21397); assay type: functional
T3 sequence (P21397 whole entry): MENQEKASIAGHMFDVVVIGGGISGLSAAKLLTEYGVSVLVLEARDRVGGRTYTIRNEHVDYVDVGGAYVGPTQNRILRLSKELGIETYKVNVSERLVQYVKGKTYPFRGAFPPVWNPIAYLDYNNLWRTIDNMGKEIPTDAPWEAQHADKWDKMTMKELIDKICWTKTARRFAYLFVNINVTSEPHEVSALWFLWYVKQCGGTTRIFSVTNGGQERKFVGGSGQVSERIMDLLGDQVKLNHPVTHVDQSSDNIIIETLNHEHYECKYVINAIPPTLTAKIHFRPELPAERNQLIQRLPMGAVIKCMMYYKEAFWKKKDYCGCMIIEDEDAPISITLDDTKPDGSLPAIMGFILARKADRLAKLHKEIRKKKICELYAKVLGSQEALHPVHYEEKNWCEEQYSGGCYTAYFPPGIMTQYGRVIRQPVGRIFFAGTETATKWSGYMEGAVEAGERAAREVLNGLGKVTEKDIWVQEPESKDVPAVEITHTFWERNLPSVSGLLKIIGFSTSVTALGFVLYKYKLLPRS

[3] = target: 5-hydroxytryptamine receptor 2B (Homo sapiens, UniProt P41595); assay type: functional, cell-based
Thromboxane A2 receptor [4] = target: T4, Thromboxane A2 receptor (Homo sapiens, UniProt P21731); assay type: functional, cell-based
T4 sequence (P21731 whole entry): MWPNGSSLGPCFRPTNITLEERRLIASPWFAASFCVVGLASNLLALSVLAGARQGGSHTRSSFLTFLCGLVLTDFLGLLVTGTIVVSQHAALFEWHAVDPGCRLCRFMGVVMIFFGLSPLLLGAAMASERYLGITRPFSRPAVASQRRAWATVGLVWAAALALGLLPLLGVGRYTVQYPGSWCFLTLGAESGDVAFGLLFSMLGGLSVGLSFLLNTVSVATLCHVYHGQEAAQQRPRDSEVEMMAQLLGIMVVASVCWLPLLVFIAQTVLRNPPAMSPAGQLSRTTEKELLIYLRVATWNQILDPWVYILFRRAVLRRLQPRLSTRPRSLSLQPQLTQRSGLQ

[5] = target: 3',5'-cyclic-AMP phosphodiesterase 4A (Homo sapiens, UniProt P27815); assay type: functional
[6] = target: Vascular endothelial growth factor receptor 2 (Homo sapiens, UniProt P35968); assay type: functional
Thromboxane A2 receptor [7] = target: T4, Thromboxane A2 receptor; assay type: functional, cell-based; remark: listed apart in the source
[8] = target: T5, Alpha-1A adrenergic receptor (Homo sapiens, UniProt P35348); assay type: functional, cell-based
T5 sequence (P35348 whole entry): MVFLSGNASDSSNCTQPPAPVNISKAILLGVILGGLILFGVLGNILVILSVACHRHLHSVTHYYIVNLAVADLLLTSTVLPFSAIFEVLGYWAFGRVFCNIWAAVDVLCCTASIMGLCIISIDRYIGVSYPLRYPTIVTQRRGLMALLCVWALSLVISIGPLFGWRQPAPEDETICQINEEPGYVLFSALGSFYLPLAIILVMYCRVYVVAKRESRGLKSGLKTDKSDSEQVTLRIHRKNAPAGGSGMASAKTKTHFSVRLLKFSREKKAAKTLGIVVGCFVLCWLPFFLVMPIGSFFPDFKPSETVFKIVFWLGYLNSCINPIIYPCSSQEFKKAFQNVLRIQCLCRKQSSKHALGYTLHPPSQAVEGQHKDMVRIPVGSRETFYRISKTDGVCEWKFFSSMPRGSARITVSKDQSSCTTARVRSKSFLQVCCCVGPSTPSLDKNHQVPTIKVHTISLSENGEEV

D(3) dopamine receptor = D(3) dopamine receptor (Homo sapiens, UniProt P35462)
[9] = target: Sodium-dependent noradrenaline transporter (Homo sapiens, UniProt P23975)
Also: assay procedure not described here.

Sequence of Sodium-dependent noradrenaline transporter (P23975 whole entry): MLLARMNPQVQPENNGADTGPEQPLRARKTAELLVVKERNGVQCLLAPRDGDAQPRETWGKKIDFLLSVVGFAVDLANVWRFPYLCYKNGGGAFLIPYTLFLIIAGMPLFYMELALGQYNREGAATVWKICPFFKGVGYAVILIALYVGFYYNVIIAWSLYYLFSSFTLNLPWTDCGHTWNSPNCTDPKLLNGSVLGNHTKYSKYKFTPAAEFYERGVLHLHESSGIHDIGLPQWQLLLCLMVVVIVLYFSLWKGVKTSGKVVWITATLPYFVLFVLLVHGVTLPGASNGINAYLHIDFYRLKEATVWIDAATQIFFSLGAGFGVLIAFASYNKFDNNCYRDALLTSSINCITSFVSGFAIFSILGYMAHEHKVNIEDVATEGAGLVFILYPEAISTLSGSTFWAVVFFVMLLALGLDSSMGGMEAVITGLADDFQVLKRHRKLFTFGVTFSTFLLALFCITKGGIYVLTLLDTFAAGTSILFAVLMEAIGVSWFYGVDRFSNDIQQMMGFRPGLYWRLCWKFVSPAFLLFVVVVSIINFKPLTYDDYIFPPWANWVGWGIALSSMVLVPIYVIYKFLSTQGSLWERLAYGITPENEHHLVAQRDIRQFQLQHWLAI
Sequence of D(3) dopamine receptor (P35462 whole entry): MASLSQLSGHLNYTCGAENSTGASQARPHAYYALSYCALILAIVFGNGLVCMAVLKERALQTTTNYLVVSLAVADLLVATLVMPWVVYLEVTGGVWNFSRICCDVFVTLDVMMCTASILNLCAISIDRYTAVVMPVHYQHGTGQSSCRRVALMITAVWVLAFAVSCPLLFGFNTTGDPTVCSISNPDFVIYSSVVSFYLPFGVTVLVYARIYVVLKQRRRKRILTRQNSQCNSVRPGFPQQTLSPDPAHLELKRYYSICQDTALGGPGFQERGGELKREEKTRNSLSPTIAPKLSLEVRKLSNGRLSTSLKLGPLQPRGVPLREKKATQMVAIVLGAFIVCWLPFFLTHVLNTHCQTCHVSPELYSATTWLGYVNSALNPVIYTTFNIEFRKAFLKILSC
Sequence of Vascular endothelial growth factor receptor 2 (P35968 whole entry): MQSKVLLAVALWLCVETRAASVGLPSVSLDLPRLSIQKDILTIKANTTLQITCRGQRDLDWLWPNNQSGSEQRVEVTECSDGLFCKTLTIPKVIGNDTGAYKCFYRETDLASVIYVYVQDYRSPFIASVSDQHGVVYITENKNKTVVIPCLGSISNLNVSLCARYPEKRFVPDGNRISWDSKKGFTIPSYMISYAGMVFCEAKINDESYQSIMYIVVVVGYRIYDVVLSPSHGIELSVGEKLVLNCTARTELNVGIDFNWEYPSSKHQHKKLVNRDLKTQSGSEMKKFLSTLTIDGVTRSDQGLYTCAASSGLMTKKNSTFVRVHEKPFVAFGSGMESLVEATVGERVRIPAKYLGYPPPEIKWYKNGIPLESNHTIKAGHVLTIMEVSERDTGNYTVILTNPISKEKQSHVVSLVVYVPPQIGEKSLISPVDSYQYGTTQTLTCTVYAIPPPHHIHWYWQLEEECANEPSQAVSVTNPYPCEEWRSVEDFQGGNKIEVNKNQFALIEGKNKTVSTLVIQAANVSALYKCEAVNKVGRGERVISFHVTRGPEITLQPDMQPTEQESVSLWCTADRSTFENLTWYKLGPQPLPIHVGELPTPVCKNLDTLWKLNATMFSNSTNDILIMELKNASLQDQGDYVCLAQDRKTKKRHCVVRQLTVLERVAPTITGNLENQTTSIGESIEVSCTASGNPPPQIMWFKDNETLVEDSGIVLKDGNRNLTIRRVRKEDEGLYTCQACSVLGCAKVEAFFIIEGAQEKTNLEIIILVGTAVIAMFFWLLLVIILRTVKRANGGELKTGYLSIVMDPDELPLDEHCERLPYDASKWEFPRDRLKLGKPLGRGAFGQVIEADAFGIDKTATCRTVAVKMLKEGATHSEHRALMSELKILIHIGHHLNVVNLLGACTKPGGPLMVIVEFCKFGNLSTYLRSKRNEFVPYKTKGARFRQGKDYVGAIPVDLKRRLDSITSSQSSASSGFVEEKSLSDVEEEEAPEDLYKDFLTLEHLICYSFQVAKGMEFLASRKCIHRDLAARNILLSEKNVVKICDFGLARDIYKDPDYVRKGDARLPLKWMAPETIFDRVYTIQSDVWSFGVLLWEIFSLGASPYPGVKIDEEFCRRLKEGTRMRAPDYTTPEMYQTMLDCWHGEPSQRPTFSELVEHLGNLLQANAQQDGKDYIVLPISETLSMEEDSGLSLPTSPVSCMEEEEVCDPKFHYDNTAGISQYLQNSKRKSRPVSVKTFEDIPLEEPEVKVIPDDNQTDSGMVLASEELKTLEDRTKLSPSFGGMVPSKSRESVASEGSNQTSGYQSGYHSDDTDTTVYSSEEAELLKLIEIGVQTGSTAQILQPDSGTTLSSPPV
Sequence of 3',5'-cyclic-AMP phosphodiesterase 4A (P27815 whole entry): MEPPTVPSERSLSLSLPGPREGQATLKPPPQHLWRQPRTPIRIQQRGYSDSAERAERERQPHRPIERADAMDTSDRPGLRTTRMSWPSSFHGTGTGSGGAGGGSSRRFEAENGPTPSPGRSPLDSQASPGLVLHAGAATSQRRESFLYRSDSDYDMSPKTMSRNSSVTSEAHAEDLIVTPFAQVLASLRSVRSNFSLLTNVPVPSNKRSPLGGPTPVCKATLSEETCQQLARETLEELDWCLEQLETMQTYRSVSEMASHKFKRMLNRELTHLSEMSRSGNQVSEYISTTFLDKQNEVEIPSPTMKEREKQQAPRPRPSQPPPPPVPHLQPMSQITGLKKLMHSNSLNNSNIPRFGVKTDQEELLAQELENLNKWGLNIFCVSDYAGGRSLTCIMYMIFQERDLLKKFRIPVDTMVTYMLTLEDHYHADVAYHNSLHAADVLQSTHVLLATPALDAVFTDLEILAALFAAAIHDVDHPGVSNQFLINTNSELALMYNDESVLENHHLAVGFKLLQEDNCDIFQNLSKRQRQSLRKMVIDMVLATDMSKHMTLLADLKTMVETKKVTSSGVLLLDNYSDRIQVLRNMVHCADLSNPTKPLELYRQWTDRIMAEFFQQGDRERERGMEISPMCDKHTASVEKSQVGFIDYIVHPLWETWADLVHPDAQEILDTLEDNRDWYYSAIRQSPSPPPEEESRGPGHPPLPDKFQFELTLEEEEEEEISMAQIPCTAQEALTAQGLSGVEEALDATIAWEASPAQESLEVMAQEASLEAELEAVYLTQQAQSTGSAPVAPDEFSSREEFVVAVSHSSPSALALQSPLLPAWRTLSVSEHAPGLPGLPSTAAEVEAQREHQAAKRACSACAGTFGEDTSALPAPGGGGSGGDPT
Sequence of 5-hydroxytryptamine receptor 2B (P41595 whole entry): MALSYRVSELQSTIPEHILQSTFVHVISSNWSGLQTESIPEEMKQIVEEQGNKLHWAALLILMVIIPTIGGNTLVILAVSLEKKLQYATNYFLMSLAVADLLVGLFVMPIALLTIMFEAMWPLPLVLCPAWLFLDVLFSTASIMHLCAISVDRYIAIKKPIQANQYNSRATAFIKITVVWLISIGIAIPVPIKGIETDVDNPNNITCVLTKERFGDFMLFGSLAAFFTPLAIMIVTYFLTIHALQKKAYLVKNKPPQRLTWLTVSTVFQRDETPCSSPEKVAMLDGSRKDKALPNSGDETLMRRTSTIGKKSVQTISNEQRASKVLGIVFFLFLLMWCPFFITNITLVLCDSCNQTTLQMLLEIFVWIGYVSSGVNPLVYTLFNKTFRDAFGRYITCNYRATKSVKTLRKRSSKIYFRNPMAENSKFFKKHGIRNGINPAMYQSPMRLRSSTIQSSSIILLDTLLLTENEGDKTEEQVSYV
Sequence of D(1A) dopamine receptor (P21728 whole entry): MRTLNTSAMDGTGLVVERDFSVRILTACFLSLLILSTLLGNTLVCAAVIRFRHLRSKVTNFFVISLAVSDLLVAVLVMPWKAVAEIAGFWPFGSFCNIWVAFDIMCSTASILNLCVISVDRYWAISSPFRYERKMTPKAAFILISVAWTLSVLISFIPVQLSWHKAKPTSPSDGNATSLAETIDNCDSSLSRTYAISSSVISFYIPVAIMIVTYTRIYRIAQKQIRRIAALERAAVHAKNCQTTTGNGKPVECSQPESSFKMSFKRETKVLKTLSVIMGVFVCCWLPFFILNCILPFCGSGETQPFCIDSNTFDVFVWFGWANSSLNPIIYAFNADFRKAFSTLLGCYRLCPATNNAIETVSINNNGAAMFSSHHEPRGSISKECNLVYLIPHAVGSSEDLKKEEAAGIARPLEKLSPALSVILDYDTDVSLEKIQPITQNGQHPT

Row | SMILES | AC50 (D(1A) dopamine receptor) | AC50 (Estrogen receptor) | AC50 [1] | AC50 [2] | AC50 [3] | AC50 (Thromboxane A2 receptor [4]) | AC50 [5] | AC50 [6] | AC50 (Thromboxane A2 receptor [7]) | AC50 [8] | AC50 (D(3) dopamine receptor) | AC50 [9]
1 | Oc1ccc(OCc2ccccc2)cc1 [MONOBENZONE] | > 30 µM | > 30 µM | > 30 µM | > 30 µM | > 30 µM | > 30 µM | > 30 µM | > 30 µM | > 30 µM | > 30 µM | > 30 µM | 6.96 µM
2 | COC(=O)Nc1nc2cc(C(=O)c3ccc(F)cc3)ccc2[nH]1 [FLUBENDAZOLE] | > 30 µM | > 30 µM | > 30 µM | > 30 µM | > 30 µM | > 30 µM | > 30 µM | 0.386 µM | > 30 µM | > 30 µM | > 30 µM | > 10 µM
3 | Cc1ccc2c([nH]c(=O)c3c(=O)cc(C(=O)OCCC(C)C)oc32)c1C | > 30 µM | > 30 µM | > 30 µM | > 30 µM | > 10 µM | > 30 µM | > 30 µM | > 30 µM | > 30 µM | > 30 µM | > 30 µM | > 30 µM
4 | O=C1Nc2ccccc2C1(c1ccc(O)cc1)c1ccc(O)cc1 [OXYPHENISATINE] | > 30 µM | > 30 µM | > 30 µM | > 30 µM | > 30 µM | > 30 µM | > 30 µM | > 30 µM | > 30 µM | > 30 µM | > 30 µM | > 30 µM
5 | CC(C)(Oc1ccc(C(=O)c2ccc(Cl)cc2)cc1)C(=O)O [FENOFIBRIC ACID] | > 30 µM | > 30 µM | > 30 µM | > 30 µM | > 30 µM | > 30 µM | > 3 µM | > 30 µM | > 30 µM | > 30 µM | > 30 µM | > 30 µM
6 | COC(=O)N[C@H](C(=O)N1CC2(CC2)C[C@H]1c1ncc(-c2ccc3c(c2)C(F)(F)c2cc(-c4ccc5nc([C@@H]6[C@H]7CC[C@H](C7)N6C(=O)[C@@H](NC(=O)OC)C(C)C)[nH]c5c4)ccc2-3)[nH]1)C(C)C | > 30 µM | > 30 µM | > 30 µM | > 30 µM | > 30 µM | > 30 µM | > 30 µM | > 30 µM | > 30 µM | > 30 µM | > 10 µM | > 30 µM
7 | COc1ncnc(NS(=O)(=O)c2ccc(N)cc2)c1OC [SULFADOXINE] | > 30 µM | 22.7 µM | > 30 µM | > 30 µM | > 30 µM | > 30 µM | > 30 µM | > 30 µM | > 30 µM | > 30 µM | > 30 µM | > 30 µM
8 | C[C@@H]1CN(c2c(F)c(N)c3c(=O)c(C(=O)O)cn(C4CC4)c3c2F)C[C@H](C)N1 [SPARFLOXACIN] | > 30 µM | > 30 µM | > 30 µM | > 30 µM | > 30 µM | > 30 µM | > 30 µM | > 30 µM | > 30 µM | > 30 µM | > 30 µM | > 30 µM
